Values after ≈ are worked out from the molar mass of the structure shown.
Key:
Assay type in all cases: functional, cell-based; call rule not given here
MCF7 = experiment: Cytotoxicity against human MCF7 cells after 48 hrs by MTT assay; settings: MCF7, 48 h
A-431 = experiment: Cytotoxicity against human A431 cells after 48 hrs by MTT assay
A549 = experiment: Cytotoxicity against human A549 cells after 48 hrs by MTT assay; settings: A549, 48 h
HT-29 = experiment: Cytotoxicity against human HT-29 cells after 48 hrs by MTT assay
HepG2 = experiment: Cytotoxicity against human HepG2 cells after 48 hrs by MTT assay
[1] = Homo sapiens, HT-29, 48 h, read-out: IC50
[2] = Homo sapiens, HepG2, 48 h, read-out: IC50

## CC(CO)c1cc2c(c(O)c1O)C[C@@]1(O)CCCC(C)(C)[C@@H]1CC2 (stereo not given in full)
MCF7
  IC50: 16 µg/mL (≈ 47.7 µM)
A-431
  IC50: Not Active
A549
  IC50: 18.6 µg/mL (≈ 55.7 µM)
HT-29; [1]
  IC50: 16.2 µg/mL (≈ 48.5 µM)
HepG2; [2]
  IC50: 18.6 µg/mL (≈ 55.7 µM)

## CC(CO)c1cc(O)c2c(c1)CC[C@H]1C(C)(C)CCC[C@]1(O)C2 (stereo not given in full)
MCF7
  IC50: 80.8 µg/mL (≈ 254 µM)
A-431
  IC50: Not Active
A549
  IC50: 43.6 µg/mL (≈ 137 µM)
HT-29; ht-29
  IC50: Not Active
HepG2; hepg2
  IC50: Not Active

## CC(CO)c1cc(O)c2c(c1)[C@@H](O)C[C@H]1C(C)(C)CCC[C@]1(O)C2 (stereo not given in full)
MCF7
  IC50: 15.8 µg/mL (≈ 47.4 µM)
A-431
  IC50: Not Active
A549
  IC50: 21.4 µg/mL (≈ 63.9 µM)
HT-29; [1]
  IC50: 14.6 µg/mL (≈ 43.6 µM)
HepG2; [2]
  IC50: 34.4 µg/mL (≈ 103 µM)
